Measured values as given in patent publication US12285437B2 (The Research Foundation for The State University of new York, priority 2019, dated 2025).
Read-outs that look alike come from different tables or passages of the source.

What was measured:
[1] = HPLC assay of Dox release from DMA prodrugs 2/4/6 at different pH values; type: physicochemical; settings: 37° C., pH 7.4, 10 h
Experimental: The pH-dependence of drug release from Dox-DMA prodrugs as followed in HPLC assays. To test the pH-sensitivity of drug release, solutions of a DMA prodrug were adjusted to have pH values between 6.0 and 7.4. […] The HPLC rans were carried out with pH 8 solvents so that the DMA prodrug would not decompose during the HPLC analysis. Areas under the peaks were integrated to give the percentages.
The pH of the DMA prodrug solution was adjusted to different pH values in the range of pH 7.4-6.0. […] Representative HPLC traces are shown in ESI FIGS. S24-S29 (see these figures and their captions for more detailed information).

ES2 ovarian cancer cells = experiment: Antiproliferation assays against ES2 cancer cells at different pH values; type: cell-based, human
Experimental: For cell experiments, a pH 8 or pH 10 (directly from DMI to DMA conversion) solution of DMA 2/4/6 was sterilized by filtering through a 0.2-micron membrane. […] At this point, small amounts of 10 (or 25) mM of sterile aq.
Antiproliferation assays against ES2 cancer cells at different pH values. […] Treatment solution volume was 50-100 μL per well, with a set volume per well for all wells in a plate.

[2] = tested on: MDA-MB-231 human breast cancer cells
Experimental: (§1) pH-dependent anti-proliferation assays with cells. In 96-well plates, ˜3,000 cells were seeded per well then grown for 24-48 hr until 30-40% confluency. […] For serum effect cell plate data shown in FIG. 5I, cell viability was measured using alamar Blue assay (i.e., growth media was replaced with 45 μL of pH 7.4 DMEM/F-12 media without phenol red, 5 μL of alamar Blue reagent (10×) was added; fluorescence at 590 nm was recorded after excitation at 560 nm at 1 hr afterwards).
(§2) The reaction solution was allowed to stand at rt for 1 hr in the dark, during which the pH decreased to ˜9.6. After 1 hr, the reaction solution was split into two 50-μL portions (for pH 7.4 vs. pH 6.2-6.8 cell experiments). The pH of one portion was adjusted to pH 8 (for pH 7.4 cell experiments) or pH 7 (for pH 6.2-6.8 cell experiments). Subsequently, the solution was diluted 30-fold (to 10 μM) with pH 7.4 or pH 6.2-6.8 cell media (final volume 1.5 mL) and then filtered (0.2 micron) before used in cell experiments.

[3] = tested on: ES-2 human ovarian cancer cells; experiment: pH-dependent anti-proliferation assay (MTS; alamar Blue for FIG. 7I); settings: for Cell Viability Average (Avg): FIG. 7A, ES-2, 6 hr
Text: pH-dependent anti-proliferation assays with cells.
NaOH to adjust the pH to 9.9.

[4] = tested on: NIH:OVCAR3 human ovarian cancer cells
Experimental: as §1, §2

ES2 cells = experiment: Imaging studies (confocal microscopy); type: cell-based, human
Experimental: Afterwards, the treatment solution was removed; the nuclei of the cells were labeled with staining dye Hoechst 33342; and then images were taken on a scanning confocal microscope.
Imaging studies (confocal microscopy). Approximately 8,000 ES2 cells were seeded on a colIagen-coated glass dish (MatTek Corporation, part No. P35GCOL-0-10-C) and cultured in McCoy's 5A medium with 10% fetal bovine serum and 1% penicillin-streptomycin at 37° C. in the incubator (5% CO2) overnight. […] After treatment solution was removed, the cells were washed 1× with 100 μL of DMEM/F12 pH-specific media. Prior to fluorescence imaging, the nuclei of cells were stained with 1 μg/mL Hoechst 33342 in PBS for 20 min at 37° C. in the incubator. Afterwards, cells stayed in pH-specific DMEM/F12 media during imaging. […] The images in FIGS. 33-36 were processed using LAS X and ImageJ.

[5] = tested on: PC-3 human prostate cancer cells; settings: FIG. 9B, PC3, […], 10 μM
Experimental: as §1, §2

[6] = tested on: SKOV3 human ovarian cancer cells; settings: FIG. 9A, 10 μM
Experimental: as §1, §2

## COc1cccc2c1C(=O)c1c(O)c3c(c(O)c1C2=O)C[C@@](O)(C(=O)CO)C[C@@H]3O[C@H]1C[C@H](N2C(=O)C(C)=C(CCC(=O)NCCSSC[C@H](N)C(=O)O)C2=O)[C@H](O)[C@H](C)O1 [Dox-DMI-Cys 5]
[1]
  DMI formed: 26%

## CC1=C(CCC(=O)N[C@@H](CCC(=O)O)C(=O)O)C(=O)OC1=O [byproduct 10, (3-(4-methyl-2,5-dioxo-2,5-dihydrofuran-3-yl)propanoyl)glutamic acid]
ES2 ovarian cancer cells; FIG. 30D, ES2, 3, 30 or 300 μM, pH 6.5-6.6 or 7.4-7.5, 3 h
  cytotoxicity of anhydride byproduct of drug release: not cytotoxic

## CC1=C(CCC(=O)O)C(=O)OC1=O [anhydride 7, 2-propionic-3-methylmaleic anhydride]
ES2 ovarian cancer cells; FIG. 29D, ES2, 2, 20 or 200 μM, pH 6.7-6.8 or 7.5-7.6, 2 h
  cytotoxicity of anhydride byproduct of drug release: harmless to cells
ES2 ovarian cancer cells; FIG. 29D, ES2, 2, 20 or 200 μM, pH 6.7-6.8 or 7.5-7.6, 2 h, listed as anhydride byproduct 7
  cytotoxicity of anhydride byproduct of drug release: not cytotoxic

## Doxorubicin Disubstituted Maleamic Acid Glutathione Conjugate [Dox-DMA-GSH 8]
[2]; MDA-MB231, 2-3 h, 6-8 μM prodrug, pHe 6.3-6.4
  higher potency than the free drug (3 μM): 2-3 ×
[2]; MDA-MB231, pHe titration (FIG. 7F)
  pHe at which maximum effects were seen: 6.5
[3]; ES-2, 6 h
  fold more potent at pHe 6.7 (than at pHe 7.4): ~2 fold
[3]; ES-2, 6 h, pHe 6.7
  potency of 1 mM of prodrug compared to 0.5 mM of free Dox: more potent
[3]; ES-2, pHe titration (FIG. 7E)
  pHe at which the maximum effect was reached: 6.8
[4]; OVCAR3, 2-3 h, 6-8 μM prodrug, pHe 6.3-6.4
  higher potency than the free drug (3 μM): 2-3 ×
[4]; OVCAR3, pHe titration (FIG. 7G)
  pHe at which maximum effects were seen: 6.5

## COc1cccc2c1C(=O)c1c(O)c3c(c(O)c1C2=O)C[C@@](O)(C(=O)CO)C[C@@H]3O[C@H]1C[C@H](N2C(=O)C(C)=C(CCC(=O)O)C2=O)[C@H](O)[C@H](C)O1 [Dox-DMI 1]
ES2 cells; ES2, 8 μM, 1 h
  Dox channel signal among the DMI byproducts: more signals
ES2 cells; ES2, 1 h, 4 μM Dox or 8 μM prodrug/DMI
  Dox fluorescence signals in cells, pH 6.7 vs. 7.7: higher at pH 6.7 than 7.7
[1]
  DMI formed: about 13%

## COc1cccc2c1C(=O)c1c(O)c3c(c(O)c1C2=O)C[C@@](O)(C(=O)CO)C[C@@H]3O[C@H]1C[C@H](N2C(=O)C(C)=C(CCC(=O)NCCSSC[C@H](NC(=O)CC[C@H](N)C(=O)O)C(=O)NCC(=O)O)C2=O)[C@H](O)[C@H](C)O1 [Dox-DMI-GSH 7, Doxorubicin Disubstituted Maleimide Glutathione Conjugate]
[5]; pH 6.3-6.4
  Cell Viability Avg: 90%
[5]; pH 7.5-7.6
  Cell Viability Avg: 84%
[3]; ES-2, 6 h (FIG. 7A)
  toxicity compared to DMA 8: much less toxicity
[3]; 0.5 μM, pH 6.6-6.8
  Cell Viability Average (Avg): 90%
[3]; 0.5 μM, pH 7.2-7.5
  Cell Viability Average (Avg): 97%
[3]; 1 μM, pH 6.6-6.8
  Cell Viability Average (Avg): 79%
[3]; 1 μM, pH 7.2-7.5
  Cell Viability Average (Avg): 80%
[6]; pH 6.3-6.5
  Cell Viability Avg: 75%
[6]; pH 7.5-7.6
  Cell Viability Avg: 63%

## COc1cccc2c1C(=O)c1c(O)c3c(c(O)c1C2=O)C[C@@](O)(C(=O)CO)C[C@@H]3O[C@H]1C[C@H](N2C(=O)C(C)=C(CCC(=O)N[C@@H](CCC(=O)O)C(=O)O)C2=O)[C@H](O)[C@H](C)O1 [Dox-DMI-Glu 3]
[1]
  DMI formed: 26%

## CC1=C(CCC(=O)NCCSSC[C@H](N)C(=O)O)C(=O)OC1=O [byproduct 12]
ES2 ovarian cancer cells; FIG. 31D, ES2, 2, 20 or 200 μM, pH 6.7 or 7.4-7.5, 2 h
  cytotoxicity of anhydride byproduct of drug release: did not show any cytotoxicity
ES2 ovarian cancer cells; FIG. 31D, ES2, 2, 20 or 200 μM, pH 6.7 or 7.4-7.5, 2 h, listed as anhydride 12
  cytotoxicity of anhydride byproduct of drug release: no cytotoxic effect
ES2 ovarian cancer cells; FIG. 31D, ES2, 2, 20 or 200 μM, pH 6.7 or 7.4-7.5, 2 h, listed as anhydride byproduct 12
  cytotoxicity of anhydride byproduct of drug release: not cytotoxic
